≈ marks a conversion by molar mass, not a printed value.
What follows are compounds tested on SA 9218 (assay: MIC by standard agar dilution method). Settings: Mueller Hinton agar, 10^4 to 10^5 cells per spot, incubated overnight at 35° C., lowest concentration that inhibits visible growth.
Format: cell-based
In short: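 Agar dilution: two-fold compound dilutions mixed into molten Mueller Hinton agar, spots of ~10^4–10^5 cells from 0.5 McFarland suspension diluted 1:20 in TSB. Incubated overnight at 35 °C; MIC is lowest concentration inhibiting visible growth.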

SMILES | MIC | SA 9218 MIC
CCN(CC)C(=O)C1CCCN(S(=O)(=O)c2ccc(C(=O)Nc3ccc(C#N)cc3C(=O)O)cc2)C1 (stereo not drawn) [PHA-571202] | 128 µg/mL (≈ 250 µM) | 
CCCCN(CC#N)S(=O)(=O)c1ccc(C(=O)Nc2ccc(C#N)cc2C(=O)O)cc1 [PHA-571203] | 32 µg/mL (≈ 72.6 µM) | 
CC(C)N(Cc1ccccc1)S(=O)(=O)c1ccc(C(=O)Nc2ccc(C#N)cc2C(=O)O)cc1 [PHA-571205] | 32 µg/mL (≈ 67 µM) | 
N#Cc1ccc(NC(=O)c2ccc(S(=O)(=O)Nc3ccc4c(c3)CCC4)cc2)c(C(=O)O)c1 [PHA-571207] | 32 µg/mL (≈ 69.3 µM) | 
N#Cc1ccc(NC(=O)c2cccc(S(=O)(=O)N3CCN(c4ccccc4)CC3)c2)c(C(=O)O)c1 [PHA-571208] | 64 µg/mL (≈ 130 µM) | 
CCCCN(CC)S(=O)(=O)c1ccc(C(=O)Nc2ccc(C#N)cc2C(=O)O)cc1 [PHA-571214] | 16 µg/mL (≈ 37.3 µM) | 
CN(CCc1ccccc1)S(=O)(=O)c1cccc(C(=O)Nc2ccc(C#N)cc2C(=O)O)c1 [PHA-571215] | 8 µg/mL (≈ 17.3 µM) | 
CC(C)N(Cc1ccccc1)S(=O)(=O)c1cccc(C(=O)Nc2ccc(C#N)cc2C(=O)O)c1 [PHA-571216] | 32 µg/mL (≈ 67 µM) | 
N#Cc1ccc(NC(=O)c2cccc(S(=O)(=O)N3CCC(O)CC3)c2)c(C(=O)O)c1 [PHA-571219] | 32 µg/mL (≈ 74.5 µM) | 
N#Cc1ccc(NC(=O)c2cccc(S(=O)(=O)N3CCCCCC3)c2)c(C(=O)O)c1 [PHA-571224] | 8 µg/mL (≈ 18.7 µM) | 
CC(C(O)c1ccccc1)N(C)S(=O)(=O)c1cccc(C(=O)Nc2ccc(C#N)cc2C(=O)O)c1 (stereo not drawn) [PHA-571226] | 64 µg/mL (≈ 130 µM) | 
CC(C(O)c1ccccc1)N(C)S(=O)(=O)c1ccc(C(=O)Nc2ccc(C#N)cc2C(=O)O)cc1 (stereo not drawn) [PHA-571228] |  | 32 µg/mL
N#Cc1ccc(NC(=O)c2cccc(S(=O)(=O)N3CCN(c4ccc(F)cc4)CC3)c2)c(C(=O)O)c1 [PHA-571230] | 16 µg/mL (≈ 31.5 µM) | 
N#Cc1ccc(NC(=O)c2ccc(S(=O)(=O)N3CCC(O)CC3)cc2)c(C(=O)O)c1 [PHA-571231] | > 128 µg/mL | 
CN(CCC#N)S(=O)(=O)c1ccc(C(=O)Nc2ccc(C#N)cc2C(=O)O)cc1 [PHA-571232] | > 128 µg/mL | 
CC1CC(C)CN(S(=O)(=O)c2ccc(C(=O)Nc3ccc(C#N)cc3C(=O)O)cc2)C1 (stereo not drawn) [PHA-571234] | 8 µg/mL (≈ 18.1 µM) | 
N#Cc1ccc(NC(=O)c2cccc(S(=O)(=O)N3CCCC4CCCCC43)c2)c(C(=O)O)c1 (stereo not drawn) [PHA-571235] | 8 µg/mL (≈ 17.1 µM) | 
CCCCN(CC#N)S(=O)(=O)c1cccc(C(=O)Nc2ccc(C#N)cc2C(=O)O)c1 [PHA-571237] | 16 µg/mL (≈ 36.3 µM) | 
N#CCCN(Cc1ccccc1)S(=O)(=O)c1cccc(C(=O)Nc2ccc(C#N)cc2C(=O)O)c1 [PHA-571238] | 128 µg/mL (≈ 262 µM) | 
N#Cc1ccc(NC(=O)c2ccc(S(=O)(=O)N3CCC3)cc2)c(C(=O)O)c1 [PHA-571239] | 128 µg/mL (≈ 332 µM) | 
CC1CCN(S(=O)(=O)c2ccc(C(=O)Nc3ccc(C#N)cc3C(=O)O)cc2)CC1 [PHA-571240] | 16 µg/mL (≈ 37.4 µM) | 
CC1CCCN(S(=O)(=O)c2ccc(C(=O)Nc3ccc(C#N)cc3C(=O)O)cc2)C1 (stereo not drawn) [PHA-571241] | 16 µg/mL (≈ 37.4 µM) | 
CC(C(O)c1ccccc1)N(C)S(=O)(=O)c1ccc(C(=O)Nc2ccc(C#N)cc2C(=O)O)cc1 (stereo not drawn) [PHA-571242] | 32 µg/mL (≈ 64.8 µM) | 
CC1CC(C)CN(S(=O)(=O)c2cccc(C(=O)Nc3ccc(C#N)cc3C(=O)O)c2)C1 (stereo not drawn) [PHA-571243] | 4 µg/mL (≈ 9.06 µM) | 
N#CCCN(Cc1ccccc1)S(=O)(=O)c1ccc(C(=O)Nc2ccc(C#N)cc2C(=O)O)cc1 [PHA-571246] | 32 µg/mL (≈ 65.5 µM) | 

SMILES | MIC | SA 9218 MIC
N#Cc1ccc(NC(=O)c2ccc(S(=O)(=O)N3CCCC4CCCCC43)cc2)c(C(=O)O)c1 (stereo not drawn) [PHA-571249] | 16 µg/mL (≈ 34.2 µM) | 
C=CCN(C1CCCC1)S(=O)(=O)c1ccc(C(=O)Nc2ccc(C#N)cc2C(=O)O)cc1 [PHA-571253] | 16 µg/mL (≈ 35.3 µM) | 
N#Cc1ccc(NC(=O)c2ccc(S(=O)(=O)N3CCOCC3)cc2)c(C(=O)O)c1 [PHA-571255] | > 128 µg/mL | 
COCC1CCCN1S(=O)(=O)c1ccc(C(=O)Nc2ccc(C#N)cc2C(=O)O)cc1 (stereo not drawn) [PHA-571257] | 64 µg/mL (≈ 144 µM) | 
CC(C(O)c1ccccc1)N(C)S(=O)(=O)c1cccc(C(=O)Nc2ccc(C#N)cc2C(=O)O)c1 (stereo not drawn) [PHA-571260] |  | 32 µg/mL
N#Cc1ccc(NC(=O)c2cccc(S(=O)(=O)N3CCC(C#N)(c4ccccc4)CC3)c2)c(C(=O)O)c1 [PHA-571262] | 32 µg/mL (≈ 62.2 µM) | 
CCC1CCCCN1S(=O)(=O)c1cccc(C(=O)Nc2ccc(C#N)cc2C(=O)O)c1 (stereo not drawn) [PHA-571263] | 16 µg/mL (≈ 36.2 µM) | 
CN(C1CCCCC1)S(=O)(=O)c1ccc(C(=O)Nc2ccc(C#N)cc2C(=O)O)cc1 [PHA-571264] | 32 µg/mL (≈ 72.5 µM) | 
N#Cc1ccc(NC(=O)c2ccc(S(=O)(=O)N3CCc4ccccc4C3)cc2)c(C(=O)O)c1 [PHA-571265] | 16 µg/mL (≈ 34.7 µM) | 
N#Cc1ccc(NC(=O)c2cccc(S(=O)(=O)N3CCN(c4cccc(C(F)(F)F)c4)CC3)c2)c(C(=O)O)c1 [PHA-571267] | 32 µg/mL (≈ 57.3 µM) | 
N#Cc1ccc(NC(=O)c2cccc(S(=O)(=O)N3CCc4ccccc4C3)c2)c(C(=O)O)c1 [PHA-571269] | 16 µg/mL (≈ 34.7 µM) | 
CC1CCCN(S(=O)(=O)c2cccc(C(=O)Nc3ccc(C#N)cc3C(=O)O)c2)C1 (stereo not drawn) [PHA-571270] | 8 µg/mL (≈ 18.7 µM) | 
CN(CCC#N)S(=O)(=O)c1cccc(C(=O)Nc2ccc(C#N)cc2C(=O)O)c1 [PHA-571271] | 64 µg/mL (≈ 155 µM) | 
CC(C(O)c1ccccc1)N(C)S(=O)(=O)c1cccc(C(=O)Nc2ccc(C#N)cc2C(=O)O)c1 (stereo not drawn) [PHA-571272] |  | 32 µg/mL
CC1CCN(S(=O)(=O)c2cccc(C(=O)Nc3ccc(C#N)cc3C(=O)O)c2)CC1 [PHA-571273] | 8 µg/mL (≈ 18.7 µM) | 
O=C1CCC(COc2cccc(C(=O)Nc3ccc(Br)cc3C(=O)O)c2)N1 (stereo not drawn) [PHA-571280] |  | >128 µg/mL
O=C1CCC(COc2cccc(C(=O)Nc3ccc(Br)cc3C(=O)O)c2)N1 (stereo not drawn) [PHA-571281] | 128 µg/mL (≈ 295 µM) | 
COc1cc(COc2cccc(C(=O)Nc3ccc(Br)cc3C(=O)O)c2)ccc1[N+](=O)[O-] [PHA-571282] | 16 µg/mL (≈ 31.9 µM) | 
COC(=O)c1ccc(COc2cccc(C(=O)Nc3ccc(Br)cc3C(=O)O)c2)cc1 [PHA-571283] | 16 µg/mL (≈ 33 µM) | 
O=C(Nc1ccc(Br)cc1C(=O)O)c1cccc(OC2CCOC2=O)c1 (stereo not drawn) [PHA-571285] | 64 µg/mL (≈ 152 µM) | 
CC(C)(C)OC(=O)NC(COc1cccc(C(=O)Nc2ccc(Br)cc2C(=O)O)c1)c1ccccc1 (stereo not drawn) [PHA-571287] | 2 µg/mL (≈ 3.6 µM) | 
CCOC(=O)C1CCC(Oc2cccc(C(=O)Nc3ccc(Br)cc3C(=O)O)c2)CC1 (stereo not drawn) [PHA-571289] | 32 µg/mL (≈ 65.3 µM) | 
C=CCC(CC=C)Oc1ccc(C(=O)Nc2ccc(Br)cc2C(=O)O)cc1 [PHA-571292] | 32 µg/mL (≈ 74.4 µM) | 
O=C(Nc1ccc(Cl)cc1C(=O)O)c1cccc(S(=O)(=O)N2CCOCC2)c1 [PHA-571395] | 4 µg/mL (≈ 9.41 µM) | 
O=C(Nc1ccc(Br)cc1C(=O)O)c1cccc(S(=O)(=O)N2CCOCC2)c1 [PHA-571396] | 4 µg/mL (≈ 8.52 µM) | 

SMILES | MIC | SA 9218 MIC
O=C(Nc1ccc([N+](=O)[O-])cc1C(=O)O)c1cccc(S(=O)(=O)N2CCOCC2)c1 [PHA-571397] | 4 µg/mL (≈ 9.19 µM) | 
O=C(Nc1ccc(I)cc1C(=O)O)c1cccc(S(=O)(=O)N2CCOCC2)c1 [PHA-571458] | 4 µg/mL (≈ 7.75 µM) | 
N#Cc1ccc(NC(=O)c2cccc(Nc3ccccc3)c2)c(C(=O)O)c1 [PHA-610938, 2-[(3-Anilinobenzoyl)amino]-5-cyanobenzoic acid] | 1 µg/mL (≈ 2.8 µM) | 
O=C(Nc1ccc(-c2ccc(C(F)(F)F)cc2)cc1C(=O)O)c1cccc(S(=O)(=O)N2CCOCC2)c1 [PHA-610940] | > 128 µg/mL | 
COc1ccc(-c2ccc(NC(=O)c3cccc(S(=O)(=O)N4CCOCC4)c3)c(C(=O)O)c2)cc1 [PHA-610941] | > 128 µg/mL | 
O=C(Nc1ccc(-c2ccccc2)cc1C(=O)O)c1cccc(S(=O)(=O)N2CCOCC2)c1 [PHA-610942] | > 128 µg/mL | 
CN(c1ccc(Cl)cc1)S(=O)(=O)c1cccc(C(=O)Nc2ccc(Cl)cc2C(=O)O)c1 [PHA-615551] | 1 µg/mL (≈ 2.09 µM) | 
N#Cc1ccc(NC(=O)c2cccc(S(=O)(=O)n3cnc4ccccc43)c2)c(C(=O)O)c1 [PHA-630330] | 0.5 µg/mL (≈ 1.12 µM) | 
O=C(Nc1ccc(Br)cc1C(=O)O)c1cccc(S(=O)(=O)n2ccc3cccnc32)c1 [PHA-630331] | 2 µg/mL (≈ 4 µM) | 
N#Cc1ccc(NC(=O)c2cccc(SCc3ccccc3)c2)c(C(=O)O)c1 [PHA-630368] | 0.5 µg/mL (≈ 1.29 µM) | 
N#Cc1ccc(NC(=O)c2cccc(S(=O)(=O)C3CCCC3)c2)c(C(=O)O)c1 [PHA-630426] | > 128 µg/mL | 
N#Cc1ccc(NC(=O)c2cccc([S+]([O-])C3CCCC3)c2)c(C(=O)O)c1 (stereo not drawn) [PHA-630427] | 4 µg/mL (≈ 10.5 µM) | 
CC(C)(C)N1C(=O)c2ccc(C(=O)Nc3ccc(C#N)cc3C(=O)O)cc2C1=O [PHA-630726] | 4 µg/mL (≈ 10.2 µM) | 
N#Cc1ccc(NC(=O)c2cccc(CS(=O)(=O)N3CCCC3)c2)c(C(=O)O)c1 [PHA-630852, 5-cyano-2-({3-[(1-pyrrolidinylsulfonyl)methyl]benzoyl}amino)benzoic acid] | 4 µg/mL (≈ 9.67 µM) | 
N#Cc1ccc(NC(=O)c2cc(Br)cc(S(=O)(=O)N3CCc4ccccc43)c2)c(C(=O)O)c1 [PHA-630965] | 0.25 µg/mL (≈ 0.475 µM) | 
CN(c1ccc(Cl)cc1)S(=O)(=O)c1cc(Br)cc(C(=O)Nc2ccc(C#N)cc2C(=O)O)c1 [PHA-630966] | 0.25 µg/mL (≈ 0.456 µM) | 
CC(C)(C)N1C(=O)c2ccc(C(=O)Nc3ccc(Br)cc3C(=O)O)cc2C1=O [PHA-630989] | 4 µg/mL (≈ 8.98 µM) | 
CN(c1ccc(Cl)cc1)S(=O)(=O)c1cc(Br)cc(C(=O)Nc2ccc(Br)cc2C(=O)O)c1 [PHA-631082] | 0.25 µg/mL (≈ 0.415 µM) | 
N#Cc1ccc(NC(=O)c2cccc(S(=O)(=O)NC3CCc4ccccc43)c2)c(C(=O)O)c1 (stereo not drawn) [PHA-656807] | 64 µg/mL (≈ 139 µM) | 
N#Cc1ccc(NC(=O)c2cccc(S(=O)(=O)N(CCO)Cc3ccccc3)c2)c(C(=O)O)c1 [PHA-656808] | 64 µg/mL (≈ 133 µM) | 
CN(CC(O)c1ccccc1)S(=O)(=O)c1ccc(C(=O)Nc2ccc(C#N)cc2C(=O)O)cc1 (stereo not drawn) [PHA-656809] | 64 µg/mL (≈ 133 µM) | 
N#Cc1ccc(NC(=O)c2cccc(S(=O)(=O)N3CCN(c4ccc([N+](=O)[O-])cc4)CC3)c2)c(C(=O)O)c1 [PHA-656810] | 2 µg/mL (≈ 3.73 µM) | 
CC(C)CN(CC(C)C)S(=O)(=O)c1ccc(C(=O)Nc2ccc(C#N)cc2C(=O)O)cc1 [PHA-656811] | 32 µg/mL (≈ 69.9 µM) | 
O=C(Nc1ccc(-c2ccc(Cl)cc2)cc1C(=O)O)c1cccc(S(=O)(=O)N2CCOCC2)c1 [PHA-656820] | > 128 µg/mL | 
CCCCN(CCO)S(=O)(=O)c1cccc(C(=O)Nc2ccc(C#N)cc2C(=O)O)c1 [PHA-656859] | 16 µg/mL (≈ 35.9 µM) | 

Source: patent US20050113450A1, “Antibacterial agents” (priority 2002, published 2005)
